According to patent US8987301B2, “Heteroarylaminoquinolines as TGF-beta receptor kinase inhibitors” (Merck Patent GmbH, priority 2009, dated 2015):

These compounds were tested against T1, TβR (GST-ALK5) (Homo sapiens, UniProt P36897) (assay: In-vitro (enzyme) flashplate kinase assay, TβR activity). Settings: GST-ALK5, GST-SMAD2 substrate, 3 mM ATP.
T1 sequence (P36897 34-503): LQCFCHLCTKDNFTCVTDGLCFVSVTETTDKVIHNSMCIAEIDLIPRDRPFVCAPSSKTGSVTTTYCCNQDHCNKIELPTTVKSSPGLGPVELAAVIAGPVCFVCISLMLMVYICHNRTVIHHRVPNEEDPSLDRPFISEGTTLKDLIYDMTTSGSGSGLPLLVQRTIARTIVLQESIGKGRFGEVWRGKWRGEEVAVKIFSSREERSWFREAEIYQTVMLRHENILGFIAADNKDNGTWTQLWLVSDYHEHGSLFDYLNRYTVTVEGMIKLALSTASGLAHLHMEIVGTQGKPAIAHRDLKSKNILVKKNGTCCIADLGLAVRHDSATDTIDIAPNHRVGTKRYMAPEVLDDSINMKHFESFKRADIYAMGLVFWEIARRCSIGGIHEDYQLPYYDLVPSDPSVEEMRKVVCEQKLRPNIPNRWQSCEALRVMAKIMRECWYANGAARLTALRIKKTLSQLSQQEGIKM
Assay type: biochemical
Procedure: In-Vitro (Enzyme) Assay for Determination of the Efficacy of Inhibitors of the Inhibition of TGF-Beta-Mediated Effects
The kinase assay was carried out as 384-well flashplate assay. […] The reaction was stopped using 25 μl of 200 mM EDTA solution, filtered with suction at room temperature after 30 min, and the wells were washed with 3 times 100 μl of 0.9% NaCl solution. Radioactivity was measured in the TopCount. The IC50 values were calculated using RS1. Above and below, all temperatures were indicated in ° C.

Row | SMILES | IC50
1 | CN(C)CCC(=O)Nc1cnccc1Nc1cc(-c2cc(Cl)ccc2F)nc2ccccc12 [compound 064] | < 500 nM
2 | Fc1ccc(Cl)cc1-c1cc(NCc2cccnc2)c2ccccc2n1 [compound 065] | > 10000 nM
3 | Cc1cncc(-c2cc(Nc3ccncc3)c3ccccc3n2)c1 [compound 066] | > 10000 nM
4 | CN(C)CCCC(=O)Nc1cnccc1Nc1cc(-c2cc(Cl)ccc2F)nc2ccccc12 [compound 067] | 500 to 1000 nM
5 | Fc1ccc(Cl)cc1-c1cc(Nc2ncnc3ccccc23)c2ccccc2n1 [compound 068] | < 500 nM
6 | Fc1ccc(Cl)cc1-c1cc(Nc2ccnc3cc(C(F)(F)F)ccc23)c2ccccc2n1 [compound 069] | < 500 nM
7 | Fc1ccc(Cl)c(-c2cc(Nc3ccncc3)c3ccccc3n2)c1 [compound 070] | 1000 to 10000 nM
8 | O=C(O)CCNc1cnccc1Nc1cc(-c2cc(Cl)ccc2F)nc2ccccc12 [compound 071] | > 10000 nM
9 | Nc1cnccc1N(CCC(=O)O)c1cc(-c2cc(Cl)ccc2F)nc2ccccc12 [compound 072] | > 10000 nM
10 | c1ccc(-c2cc(Nc3ccncc3)c3ccccc3n2)cc1 [compound 073] | < 500 nM
11 | Nc1cnccc1Nc1cc(-c2ccccc2F)nc2ccccc12 [compound 074, N*4*-[2-(2-fluoro-phenyl)-quinolin-4-yl]-pyridine-3,4-diamine] | 1000 to 10000 nM
12 | COc1ccc2c(Nc3cc(-c4cc(Cl)ccc4F)nc4ccccc34)ccnc2c1 [compound 075] | < 500 nM
13 | CCN(CC)CCNS(=O)(=O)Nc1cnccc1Nc1cc(-c2cc(Cl)ccc2F)nc2ccccc12 [compound 076] | 1000 to 10000 nM
14 | Fc1ccc(Cl)cc1-c1cc(-n2cnc3cnccc32)c2ccccc2n1 [compound 077] | < 500 nM
15 | Nc1ncnc(Nc2cc(-c3cc(Cl)ccc3F)nc3ccccc23)n1 [compound 078] | < 500 nM
16 | CN(C)c1cccc(-c2cc(Nc3ccncc3)c3ccccc3n2)c1 [compound 079] | 1000 to 10000 nM
17 | CN(C)c1cccc(-c2cc(Nc3cc(N)ncn3)c3ccccc3n2)c1 [compound 080] | > 10000 nM
18 | CN(C)c1cccc(-c2cc(Nc3ccncn3)c3ccccc3n2)c1 [compound 081] | > 10000 nM
19 | O=c1[nH]c2cnccc2n(-c2cc(-c3cc(Cl)ccc3F)nc3ccccc23)c1=O [compound 082] | 1000 to 10000 nM
20 | FC(F)(F)c1ccccc1-c1cc(Nc2ccncc2)c2ccccc2n1 [compound 083] | > 10000 nM
21 | Fc1ccc(Br)cc1-c1cc(Nc2ccncc2)c2ccccc2n1 [compound 084] | < 500 nM

Row | SMILES | IC50
22 | CC(=O)OCC(=O)Nc1cnccc1Nc1cc(-c2cc(Cl)ccc2F)nc2ccccc12 [compound 085] | < 500 nM
23 | COCC(=O)Nc1cnccc1Nc1cc(-c2cc(Cl)ccc2F)nc2ccccc12 [compound 086] | < 500 nM
24 | Fc1ccc(Cl)cc1-c1cc(Nc2cnncc2Nc2cc(-c3cc(Cl)ccc3F)nc3ccccc23)c2ccccc2n1 [compound 087] | > 10000 nM
25 | CC(=O)OC(C)(C)C(=O)Nc1cnccc1Nc1cc(-c2cc(Cl)ccc2F)nc2ccccc12 [compound 088] | 1000 to 10000 nM
26 | COCc1nc2cnccc2n1-c1cc(-c2cc(Cl)ccc2F)nc2ccccc12 [compound 089, 2-(5-Chloro-2-fluoro-phenyl)-4-(2-methoxymethyl-imidazo[4,5-c]pyridin-1-yl)-quinoline] | < 500 nM
27 | COc1cnccc1Nc1cc(-c2cc(Cl)ccc2F)nc2ccccc12 [compound 090, [2-(5-Chloro-2-fluoro-phenyl)-quinolin-4-yl]-(3-methoxy-pyridin-4-yl)-amine] | < 500 nM
28 | CN(C)CCCc1nc2cnccc2n1-c1cc(-c2cc(Cl)ccc2F)nc2ccccc12 [compound 091] | 1000 to 10000 nM
29 | Nc1cnncc1Nc1cc(-c2cc(Cl)ccc2F)nc2ccccc12 [compound 092] | 1000 to 10000 nM
30 | CC(C)(C)Sc1cnccc1Nc1cc(-c2cc(Cl)ccc2F)nc2ccccc12 [compound 094] | 500 to 1000 nM
31 | Fc1ccc(Cl)cc1-c1cc(Nc2ccncc2)c2cc3c(cc2n1)OCO3 [compound 095] | > 10000 nM
32 | CC(C)(C)S(=O)(=O)c1cnccc1Nc1cc(-c2cc(Cl)ccc2F)nc2ccccc12 [compound 096] | > 10000 nM
33 | CN1CCN(c2cc(Nc3cc(-c4cc(Cl)ccc4F)nc4ccccc34)cc(Cl)n2)CC1 [compound 097] | > 10000 nM
34 | Oc1ccc2c(Nc3cc(-c4cc(Cl)ccc4F)nc4ccccc34)ccnc2c1 [compound 098] | 500 to 1000 nM
35 | Oc1ccccc1-c1cc(Nc2ccncc2)c2ccccc2n1 [compound 099] | > 10000 nM
36 | CN1CCN(c2cc(Nc3cc(-c4cc(Cl)ccc4F)nc4ccccc34)ccn2)CC1 [compound 100] | 1000 to 10000 nM
37 | CCOc1cc(Nc2cc(-c3cc(Cl)ccc3F)nc3ccccc23)ccn1 [compound 101] | > 10000 nM
38 | CN(C)CCCNc1cc(Nc2cc(-c3cc(Cl)ccc3F)nc3ccccc23)cc(Cl)n1 [compound 102] | 1000 to 10000 nM
39 | CN1CCN(c2cc(Nc3cc(-c4cc(Cl)ccc4F)nc4ccccc34)ncn2)CC1 [compound 103] | > 10000 nM
40 | COc1cc(Nc2cc(-c3cc(Cl)ccc3F)nc3ccccc23)ncn1 [compound 104] | > 10000 nM
41 | Nc1cc(Nc2cc(-c3cc(Cl)ccc3F)nc3ccccc23)ccn1 [compound 105] | < 500 nM
42 | Fc1ccc(Cl)cc1-c1cc(Nc2cc(N3CCOCC3)ncn2)c2ccccc2n1 [compound 106] | > 10000 nM

Row | SMILES | IC50
43 | CC(=O)Nc1cc(Nc2cc(-c3cc(Cl)ccc3F)nc3ccccc23)ccn1 [compound 107] | < 500 nM
44 | Clc1ccc(-c2cc(Nc3ccncc3)c3ccccc3n2)cc1Cl [compound 108] | > 10000 nM
45 | O=C(CO)Nc1cnccc1Nc1cc(-c2cc(Cl)ccc2F)nc2ccccc12 [compound 109] | 500 to 1000 nM
46 | CC(=O)N(c1cc(N)ncn1)c1cc(-c2cc(Cl)ccc2F)nc2ccccc12 [compound 110] | 1000 to 10000 nM
47 | CC(C)(C)C(=O)Nc1cc(Nc2cc(-c3cc(Cl)ccc3F)nc3ccccc23)ccn1 [compound 111] | 1000 to 10000 nM
48 | Clc1cccc(-c2cc(Nc3ccncc3)c3ccccc3n2)c1Cl [compound 112] | > 10000 nM
49 | CCC(=O)Nc1cc(Nc2cc(-c3cc(Cl)ccc3F)nc3ccccc23)ccn1 [compound 113] | < 500 nM
50 | CC(C)(C)OC(=O)NCC(=O)Nc1cc(Nc2cc(-c3cc(Cl)ccc3F)nc3ccccc23)ccn1 [compound 114] | 1000 to 10000 nM
51 | NCC(=O)Nc1cc(Nc2cc(-c3cc(Cl)ccc3F)nc3ccccc23)ccn1 [compound 115] | 1000 to 10000 nM
52 | COC(=O)c1cnccc1Nc1cc(-c2cc(Cl)ccc2F)nc2ccccc12 [compound 116] | < 500 nM
53 | Nc1nc(N)nc(Nc2cc(-c3cc(Cl)ccc3F)nc3ccccc23)n1 [compound 117] | 1000 to 10000 nM
54 | Nc1ncnc(Nc2cc(-c3cc(C(F)(F)F)ccc3F)nc3ccccc23)n1 [compound 118] | < 500 nM
55 | CNC(=O)c1cnccc1Nc1cc(-c2cc(Cl)ccc2F)nc2ccccc12 [compound 119] | < 500 nM
56 | OCc1cnccc1Nc1cc(-c2cc(Cl)ccc2F)nc2ccccc12 [compound 120] | < 500 nM
57 | CN(C)CCCNc1cc(Nc2cc(-c3ccccc3F)nc3ccccc23)ccn1 [compound 121] | < 500 nM
58 | N#Cc1cncnc1Nc1cc(-c2cc(Cl)ccc2F)nc2ccccc12 [compound 122] | < 500 nM
59 | CN(C)CCNC(=O)c1cnccc1Nc1cc(-c2cc(Cl)ccc2F)nc2ccccc12 [compound 123] | < 500 nM
60 | O=C(O)c1cc(Nc2cc(-c3cc(Cl)ccc3F)nc3ccccc23)ccn1 [compound 124] | 1000 to 10000 nM
61 | CN1CCC(NC(=O)c2cnccc2Nc2cc(-c3cc(Cl)ccc3F)nc3ccccc23)CC1 [compound 125] | < 500 nM
62 | CN1CCN(C(=O)c2cnccc2Nc2cc(-c3cc(Cl)ccc3F)nc3ccccc23)CC1 [compound 126] | 1000 to 10000 nM
63 | OCc1cnccc1Nc1cc(-c2ccccc2F)nc2ccccc12 [compound 127] | < 500 nM
